The text below walks through data of patent US12643906B2, “Fused aza-heterocyclic amide compound and use thereof” (CSPC ZHONGQI PHARMACEUTICAL TECHNOLOGY (SHIJIAZHUANG) CO., …, priority 2020, dated 2026).

One may read the IC50 as the concentration needed to halve the response being measured.

For one test, the target named is T1, TRKA(G667C) (Homo sapiens, UniProt P04629, G667C).
T1 construct: purchased signalchem
In words: HTRF kinase inhibition assay, TRKA(G667C). Type of test: biochemical. The protocol:
(§1) The compound to be tested with a certain concentration gradient and an enzyme solution were successively added into a plate (kinase buffer (1× kinase buffer (Cisbio, Cat #62EZBFDD), pH 7.5; 5 mM MgCl2, 1 mM DTT) was added into negative control wells), and the compound plate was centrifuged at 1000 rpm for 30 seconds. The plate was sealed and incubated in a Constant Temperature Incubator at 25° C. for 30 min. A substrate solution containing TK-Sub-biotin (Cisbio, Cat #61TKOBL) and ATP (Sigma, Cat #R0441) was prepared, the substrate solution was added into a 384-well plate, and the plate was centrifuged at 1000 rpm for 30 seconds. The plate was sealed and incubated in a Constant Temperature Incubator at 25° C. for 60 min.
(§2) TK antibody and XL665 were diluted, mixed and added into the assay plate, and the plate was centrifuged at 1000 rpm for 30 seconds. The plate was sealed and incubated in a Constant Temperature incubator Incubator at 25° C. for 60 min. The assay plate was placed on an Envision reader for reading. (HTRF 665/615 ratio: signal value at 665 nm/signal value at 615 nm) Inhibition=(rationegative control well−ratiocompound well)/(rationegative control well−ratioenzyme-free control well)×100% 1.3 Data Analysis and Curve Fitting
(§3) Data were fitted in XLFit excel add-in version 5.4.0.8 to obtain IC50 values.
On the technique in general: Time-resolved FRET reads energy transfer from a long-lived donor to a nearby acceptor.

In the next test the target is T2, TRKA (Homo sapiens, UniProt P04629).
T2 construct: purchased Bioduro
The experiment in a line: HTRF kinase inhibition assay, TRKA. It is filed as biochemical. As for the experimental part: as §1, §2, §3

In test [1] the test system is TRK, p-TRK, p-PLCγ1, p-AKT in Ba/F3 LMNA-NTRK1-G595R tumor tissues. In words: In vivo mechanism study, western blot of tumor tissues. Also on record: species or system NuNu mice. The note with it: 100 mg/kg gavage, tumor taken 0.25-24 h. As for the experimental part:
A total of 3 mice in the control group were selected, and tumor tissues were taken and cryopreserved 4 h after the administration of the vehicle. The compound No. 4 of the present disclosure was administered to other groups at 100 mg/kg, and tumor tissues was taken at 0.25 h, 1 h, 4 h, 8 h, 12 h and 24 h for cryopreservation.
A certain mass of tumor tissue was taken and added into a corresponding volume of protein lysate (RIPA lysate (Thermo Fisher, Cat. No. 89900): protease inhibitor (cOmplete, Mini, EDTA-free, EASYpack; Roche, Cat. No. 04693159001): phosphatase inhibitor (PhosStop, EASY pack; Roche, Cat. No. 04906837001)=8:1:1), homogenized and lysed in ice bath for 30 min. The mixture was subjected to high-speed centrifugation at low temperature, and then the supernatant was taken for BCA protein quantification (procedure according to the BCA protein quantification kit (Qiagen, Cat. No. PA115-01)). Finally, after the protein concentration was adjusted to be uniform by lysate, loading buffer was added, and the mixture was boiled at 100° C. for 10 min.
4-20% of 10-well prefabricated gel was adopted; the sample loading amount was 100 μg; 140 V electrophoresis was performed for 1-1.5 h; the 300 mA wet-transfer was performed for 1.5-2 h; the membrane was blocked with 5% BSA for 2-3 h; incubating with primary antibody overnight at 4° C. […]
In general terms: Immunoblotting shows a protein as a band on a membrane.

Another test concerns the target T3, TRKC (Homo sapiens, UniProt Q16288).
T3 construct: purchased Bioduro
In words: HTRF kinase inhibition assay, TRKC. Type of test: biochemical. The protocol: as §1, §2, §3

The next test concerns the target T4, ALK (Homo sapiens, UniProt Q9UM73).
T4 construct: purchased Carna 08-105
In words: Kinase inhibition assay with fluorescein labeled peptide, ALK. It is filed as biochemical. The protocol:
(§4) Compounds were diluted to a certain concentration in DMSO with 4-fold gradients. The compound with a certain concentration, an enzyme solution and DMSO were added into a 384-well plate, and the plate was incubated at room temperature for 10 min. […] The plate was subjected to reading.

Another test has as its target T5, Ba/F3 ETV6-NTRK3-G696A (Homo sapiens, UniProt Q16288, G696A, cells depend on it).
T5 construct: fused on or other part: P41212 (Transcription factor ETV6)
The experiment in a line: In vitro cell proliferation inhibition (MTT). The settings on record: 72 h, read-out: IC50 Ba/F3 ETV6-NTRK3-G696A. It is filed as cell-based, murine. As for the experimental part: • Source of 6 kinds of cell lines for the test: KYinno Biotechnology (Beijing) Co., Ltd. • Cell type: murine B cells • Culture medium: RPMI-1640+10% FB S 2. Test Method
Cells in the logarithmic growth phase were harvested and counted using a […]. The cell suspension with a certain density was pipetted uniformly and seeded into a 96-well plate with each well of 100 μL, and shaken to make the cells uniformly disperse into the wells. 100 μL of compound solution with certain concentration gradient was added into each well, and 3 duplicate wells were set for each concentration. The plate was cultured in a CO2 incubator at 37° C. for 72 h. 20 μL of MTT working solution (5 mg/mL) was added into each well, and the plate was placed at 37° C. for 4 h, and centrifuged at 1000 rpm for 5 min by a plate centrifuge. After 180 μL of culture medium was discarded, the plate was added with 150 μL of DMSO, and mixed well with a microplate shaker, the plate bottom was wiped, and optical density (OD) at 550 nm was detected with a microplate reader.

Another test has as its target T6, TRKC(G696A) (Homo sapiens, UniProt Q16288, G696A).
T6 construct: purchased Bioduro
The experiment in a line: HTRF kinase inhibition assay, TRKC(G696A). It is filed as biochemical. The protocol: as §1
TK antibody and XL665 were diluted, mixed and added into the assay plate, and the plate was centrifuged at 1000 rpm for 30 seconds. The plate was sealed and incubated in a Constant Temperature incubator Incubator at 25° C. for 60 min. The assay plate was placed on an Envision reader for reading.
as §3

Another test has as its target T7, ROS1 (Homo sapiens, UniProt P08922).
T7 construct: purchased Carna 08-163
The experiment in a line: Kinase inhibition assay with fluorescein labeled peptide, ROS1. It is filed as biochemical. As for the experimental part:
as §4

For the compound `O=C(Nc1ccc(N2CCN(C(=O)CO)CC2)cc1)c1cnn2ccc(N3C[C@@H](F)C[C@@H]3c3cc(F)ccc3F)nc12` [Compound 4, 5-((2R,4S)-2-(2,5-difluorophenyl)-4-fluoropyrrolidin-1-yl)-N-(4-(4-(2-hydroxyacetyl)piperazin-1-yl)phenyl)pyrazolo[1,5-a]pyrimidine-3-carboxamide], the IC50 came out at 0.183 nM against TRKA(G667C); 0.236 nM at TRKA; 0.443 nM against TRKC; 22 nM against ALK; 0.383 nM at TRKC(G696A); 0.19 nM against ROS1. In test [1], the “phosphorylation of p-PLCγ1/PLCγ1 and p-AKT/AKT in tumor tissues” value is listed as “effectively inhibit”. Besides, in test [1], the “protein level of TRK and p-TRK in tumor tissues” value was “significantly reduce”. Further, the GI50 on Ba/F3 ETV6-NTRK3-G696A turned out to be 0.466 nM.
